Read-outs that look alike come from different tables or passages of the source.
Experiments:
activated T-lymphocytes [1] = test: DNA synthesis ([3H]-thymidine incorporation) in activated T-lymphocytes; assay type: cell-based; details: Homo sapiens, T-lymphocyte; Mean±s.e.mean (mean±range for n=2); read-out: pIA50 DNA (converted)
Method: (§1) PBMCs were prepared as described above by separation over Lymphoprep and T-lymphocytes were then enriched by purification on a nylon wool column. Briefly, 0.6 g nylon wool was inserted into a 10 ml syringe and this was autoclaved. […] The PBMC were resuspended in 1 ml of pre-warmed RPMI (20% HS) and were loaded onto the nylon wool column. The column was incubated for 45 min at 37° C. followed by elution of the T-cells by adding 10 ml RPMI (20% HS) (prewarmed to 37° C.) dropwise to the column. The T-cells obtained from the elution of the column were centrifuged (850 g for 5 min) and resuspended in RPMI containing L-glutamine and 5% human serum and stimulated with 0.5 ng/ml PMA and 500 ng/ml lonomycin for 48 h.
DNA synthesis was assessed by measuring the incorporation of [^3H]-thymidine. The assay was carried out in a 96-well plate. 20 μl of test compounds at 10× the final concentration were added to the plate followed by 200 μl of T-cells per well (2×10^5 cells). The cells were cultured for 4 h under standard cell culture conditions and cultures were pulsed with ^3H-thymidine (0.5 μCi/well; Amersham) for the final hour of the incubation.

activated T-lymphocytes [2] = test: Extracellular lactate levels in activated T-lymphocytes (lactate oxidase); assay type: cell-based, human; details: Homo sapiens, T-lymphocyte; Mean±s.e.mean (mean±range for n=2); read-out: pIA50 Extracellular Lactate (converted)
Method: as §1
20 μl of each concentration were added to triplicate wells of a 96-well plate. T-cells were then added (200 μl per well, 2×10^5 cells) and were cultured for 4 h under standard cell culture conditions. The cell supernatants were collected from each well after the cells were pelleted by centrifugation of the plate at 850 g for 5 min at 4° C. 10 μl of each supernatant sample were used for the lactate determination.
(§2) The assay was carried out in 96-well plates at room temperature. 10 μl of standard or sample were added to each well followed by 200 μl of the Lactate Reagent. […] The data were collected and analysed using SOFTmax PRO software (Molecular Devices).

activated T-lymphocytes [3] = test: Intracellular lactate levels in activated T-lymphocytes (lactate oxidase); assay type: cell-based; details: Homo sapiens, T-lymphocyte; Mean±s.e.mean (mean±range for n=2); read-out: pIA50 Intracellular Lactate (converted)
Method: as §1
100 μl of each concentration were added to triplicate wells of a 24-well plate. T-cells were then added (1 ml per well) and were cultured for 4 h under standard cell culture conditions. The cells were then transferred from each well to microfuge tubes and were centrifuged at 360 g for 5 min at 4° C. The supernatant was discarded and the cell pellet was resuspended in 1 ml of ice-cold PBS, pH5.0. The cells were washed twice in PBS by centrifugation (360 g, 5 min, 4° C.) followed by resuspension of the cell pellet in 100 μl deionized water. The cells were incubated for 15 min at 4° C. to allow cell lysis to occur and the cell debris was removed by centrifugation at 15000 g for 10 min at 4° C. 10 μl of each supernatant sample were used for the lactate determination.
as §2

Splenic B-lymphocytes = test: Inhibition of B-lymphocyte proliferation; assay type: cell-based, Balb/c mice; details: 48 hours
Method: Splenic B-lymphocytes were obtained from Balb/c mice by disruption of the spleen through a nylon sieve. The resultant cellular suspension was washed three times by centrifugation. The spleen cells were then plated out in flat-bottomed 96 well microtitre plates at a concentration of 2-4×10^5 cells per well. B-lymphocyte stimulators were added with or without compound. Stimulators employed were lipopolysaccharide (LPS) at 50 μg/ml, 8-mercaptoguanosine (8MG) at 100 μg/ml, or goat anti mouse IgM at 40 μg/ml. […] The cultures were incubated for 48 hours at 37° C. and pulsed with tritiated thymidine for the final 6 hours. The cells were harvested as described previously and thymidine uptake used as a measure of DNA synthesis.

human MCT1 = target: T1, human MCT1 (Homo sapiens, UniProt P53985, D490E); test: Lactate uptake by change in intracellular pH (BCECF) in INS-1 cells expressing MCT; assay type: cell-based; details: 100 nM, INS-1 cells expressing human MCT1, n=2
T1 sequence (P53985 1-500 D490E): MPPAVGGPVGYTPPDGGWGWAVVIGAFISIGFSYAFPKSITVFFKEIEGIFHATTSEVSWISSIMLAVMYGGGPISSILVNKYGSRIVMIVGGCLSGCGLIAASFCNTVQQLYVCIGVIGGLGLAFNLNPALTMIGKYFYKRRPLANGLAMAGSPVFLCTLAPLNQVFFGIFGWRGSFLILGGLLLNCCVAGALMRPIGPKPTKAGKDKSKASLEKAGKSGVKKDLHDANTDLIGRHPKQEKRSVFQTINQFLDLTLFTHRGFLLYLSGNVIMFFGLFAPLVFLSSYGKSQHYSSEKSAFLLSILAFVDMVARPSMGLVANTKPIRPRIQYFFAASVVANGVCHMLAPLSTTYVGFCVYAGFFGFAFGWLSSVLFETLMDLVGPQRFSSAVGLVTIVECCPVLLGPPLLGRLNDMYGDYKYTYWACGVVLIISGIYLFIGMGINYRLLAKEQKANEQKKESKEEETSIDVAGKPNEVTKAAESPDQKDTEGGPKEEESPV
T1 sequence (P26453 142-388 partner limits assumed): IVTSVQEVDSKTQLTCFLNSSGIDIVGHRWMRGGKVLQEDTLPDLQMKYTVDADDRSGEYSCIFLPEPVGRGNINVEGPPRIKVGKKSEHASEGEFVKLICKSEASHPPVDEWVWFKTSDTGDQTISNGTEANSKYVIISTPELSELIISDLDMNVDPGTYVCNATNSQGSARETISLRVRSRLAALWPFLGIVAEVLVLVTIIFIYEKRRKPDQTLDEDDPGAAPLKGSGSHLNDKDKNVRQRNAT
Description: As lactate entry into cells is proton-linked, the addition of exogenous lactate to cells expressing functionally active MCT isoforms results in a significant decrease in intracellular pH. Lactate uptake by this method can be measured in cells endogenously expressing MCT isoforms (e.g., K562 and MDA-MB231 cells) or in cells transfected with cloned MCT isoforms (e.g., MCT1, 3 and 4) expressed in SF9 or INS-1 cells as follows. […] INS-1 cells were transfected with pcDNA3-hMCT1 using the Fugene™ 6 Transfection Reagent (Roche Molecular Biochemicals, Indianapolis, Ind., USA) to manufacturers instructions. Stably transfected cells were selected with 100 μg/ml Genetecin (Gibco Laboratories, Grand Island, N.Y.) to generate INS-1 MCT1 mixed populations, which were subsequently dilution cloned to generate INS-1 MCT1 clones. […]
Following BCECF labelling, 10 μl of the relevant cell suspension was added to each well of a 96 well plate (Biocat Poly-D-Lysine coated clear-bottomed black plates, Becton Dickinson) and 10 μl of inhibitor or vehicle control was added per well at 10× final concentration. […] The 96 well plate was then placed in the FLEXstation and fluorescence was measured using the following wavelengths:
The experiment was set up so that a reading at time zero was made, the lactate was added to the plate, and then readings were made every 3 seconds for 3 mins. […]

[4] = system: peripheral blood mononuclear cells (PBMC); test: T-lymphocyte proliferation, PMA/ionomycin stimulated PBMC, 3 days; details: Homo sapiens, 72 h, read-out: pIA50 Proliferation (3 days) (converted)
Description: The cell signalling pathways triggered by T-cell activation through the T cell receptor and CD28 can be mimicked in vitro using a phorbol ester, phorbol 12-myristate 13-acetate (PMA), which activates protein kinase C, and ionomycin, which induces calcium release from internal cellular stores. PMA and ionomycin-stimulated proliferation of peripheral blood mononuclear cells (PBMC), of which the predominant cell type is T-lymphocytes, provides a suitable assay for measuring the ability of small molecules to block T-cell proliferation.
Blood was centrifuged at 850 g for 10 minutes and the plasma was removed. […] The blood/Lymphoprep layers were centrifuged at 850 g for 20 minutes at 18° C. (with no brake).
10 μl of compound in solution was then added to the 96-well flat bottom assay plate (final volume of 200 μl). […] Both were diluted to 4× the final assay concentration in complete medium. 50 μl of each reagent was dispensed per well to give a final assay concentration of 0.5 ng/ml PMA and 500 ng/ml ionomycin. Control wells received 100 μl cells with PMA only (negative control 1), with ionomycin only (negative control 2) and 100 μl cells with 50 μl PMA and 50 μl ionomycin with no test compound (positive control). 100 μl complete medium was added to the negative controls. […]

human MCT2 = target: T2, human MCT2 (Homo sapiens, UniProt O60669); test: MCT filter binding assay, yeast membranes, radioligand specific binding; details: ~2.5 nM radioligand
T2 construct: The full length open reading frame for human MCT2 was then subcloned into the S. cerevisiae expression plasmid, pACES14; made in house; host or cells: Saccharomyces cerevisiae BY4742 (jen1 deletion), membrane preparation; plasmid pACES14-hMCT2
T2 sequence (O60669 1-478): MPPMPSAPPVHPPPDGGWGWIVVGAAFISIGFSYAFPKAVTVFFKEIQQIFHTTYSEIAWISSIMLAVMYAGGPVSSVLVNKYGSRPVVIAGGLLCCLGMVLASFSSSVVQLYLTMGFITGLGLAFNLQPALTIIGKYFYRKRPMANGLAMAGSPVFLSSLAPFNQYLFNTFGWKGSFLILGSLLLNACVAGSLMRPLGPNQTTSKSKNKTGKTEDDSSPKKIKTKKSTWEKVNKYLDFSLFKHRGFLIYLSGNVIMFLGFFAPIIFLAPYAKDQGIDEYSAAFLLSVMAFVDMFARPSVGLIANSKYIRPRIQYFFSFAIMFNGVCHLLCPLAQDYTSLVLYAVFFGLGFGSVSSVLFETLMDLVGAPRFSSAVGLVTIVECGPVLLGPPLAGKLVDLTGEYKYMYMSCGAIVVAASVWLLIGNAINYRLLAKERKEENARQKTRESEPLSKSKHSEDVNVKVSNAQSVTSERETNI
Method: (§3) For yeast cells transformed with expression plasmids containing the human MCT 1-4 ORFs the ability of membrane preparations to bind radioligand was determined using a single ligand concentration/multi protein concentration binding assay. This generated an estimate of the amount of active binding protein present in each membrane preparation. The ligand concentration used will give an estimate of Bmax that is approximately 90% of the true value. 10 μl of ligand A, B or C that had been diluted 50 fold with assay buffer (50 mM HEPES, 0.1 mM EDTA, 0.15 M NaCl, pH 7.5, 0.5% BSA) was dispensed into wells of a polypropylene microtitre plate. This gives a final radiolabelled ligand concentration of ˜2.5 nM. […] The membranes were diluted to give a known amount/180 μl assay buffer. This is typically in the […] range. For the membranes with high binding site number a more dilute membrane preparation should be added. 180 μl of each membrane solution was then added to each well and incubated at 2 hours at room temperature with shaking. The membranes were harvested onto GF-B filter plates and washed with assay buffer without BSA, dried, scintillant added and counts detected using the relevant program for each ligand on a Packard Top Count plate reader.

human MCT3 = target: T3, human MCT3 (Homo sapiens, UniProt O95907); test: as above; details: ~2.5 nM radioligand
T3 construct: the full length open reading frame of human MCT3 was subcloned into the S. cerevisiae expression plasmid pACES14; made in house; host or cells: Saccharomyces cerevisiae BY4742 (jen1 deletion), membrane preparation; plasmid pACES14-hMCT3
T3 sequence (O95907 1-504): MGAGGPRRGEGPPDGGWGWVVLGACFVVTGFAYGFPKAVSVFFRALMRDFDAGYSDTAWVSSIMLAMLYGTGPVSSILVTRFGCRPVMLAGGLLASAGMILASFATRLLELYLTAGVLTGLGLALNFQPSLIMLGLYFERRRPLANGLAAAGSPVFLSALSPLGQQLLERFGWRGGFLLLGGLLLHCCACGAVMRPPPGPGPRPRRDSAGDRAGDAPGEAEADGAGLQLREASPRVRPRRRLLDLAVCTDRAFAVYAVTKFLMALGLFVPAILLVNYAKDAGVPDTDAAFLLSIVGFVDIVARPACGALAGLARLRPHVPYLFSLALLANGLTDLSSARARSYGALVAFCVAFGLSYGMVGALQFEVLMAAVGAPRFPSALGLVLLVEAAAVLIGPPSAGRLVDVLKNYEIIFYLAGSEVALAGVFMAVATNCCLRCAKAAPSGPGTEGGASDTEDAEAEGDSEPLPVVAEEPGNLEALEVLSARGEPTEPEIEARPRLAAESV
Method: as §3

human MCT4 = target: T4, human MCT4 (Homo sapiens, UniProt O15427); test: as above; details: ~2.5 nM radioligand
T4 construct: from the full length copy and subcloned into the S. cerevisiae expression plasmid pACES14; made in house; host or cells: Saccharomyces cerevisiae BY4742 (jen1 deletion), membrane preparation; plasmid pACES14-hMCT4
T4 sequence (O15427 1-465): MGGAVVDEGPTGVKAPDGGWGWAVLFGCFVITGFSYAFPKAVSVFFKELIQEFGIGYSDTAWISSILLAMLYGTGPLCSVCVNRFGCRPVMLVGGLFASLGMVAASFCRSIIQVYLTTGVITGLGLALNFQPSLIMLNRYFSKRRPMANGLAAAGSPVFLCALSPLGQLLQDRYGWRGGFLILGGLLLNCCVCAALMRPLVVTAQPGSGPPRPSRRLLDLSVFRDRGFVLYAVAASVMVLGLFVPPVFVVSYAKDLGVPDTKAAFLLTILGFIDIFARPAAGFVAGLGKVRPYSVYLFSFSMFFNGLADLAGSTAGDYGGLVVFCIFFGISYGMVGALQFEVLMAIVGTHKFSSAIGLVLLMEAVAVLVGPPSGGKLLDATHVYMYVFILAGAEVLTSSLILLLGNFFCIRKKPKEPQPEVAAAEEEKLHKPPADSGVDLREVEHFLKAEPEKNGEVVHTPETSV
Method: as §3

[5] = MCT filter binding assay, yeast membranes transformed with vector only; details: ~2.5 nM radioligand
Method: as §3

MDA-MB-231 cell line = test: Filter binding of 3H-ligand C to MDA-MB-231 cells; set-up: species or system human; details: untransfected MDA-MB-231
Method: The human breast cell line MDA-MB-231 had been previously identified as expressing low levels of MCT1 (Garcia et al., Cell. 76:865-873, 1994). The MDA-MB-231 cell line was grown. […] The cells were grown and transfected with pcDNA3-hMCT1. An increase in filter binding of ^3H-ligand C was consistently measured for transiently transfected cells when compared with control cells transfected with empty vector.

MCT1 = target: T5, MCT1 (Homo sapiens, UniProt P53985, D490E); test: MCT filter binding assay, yeast membranes, radioligand specific binding; set-up: made in house; host or cells: Saccharomyces cerevisiae BY4742 (jen1 deletion), membrane preparation; plasmid pACES14-hMCT1; details: ~2.5 nM radioligand
T5 sequence (P53985 1-500 D490E): T1 sequence (P53985 1-500 D490E)
Method: as §3

With `CC(C)Cc1nn(C)c(=O)c2c(SCCCO)n(Cc3cccc4ccccc34)cc12` [Ligand 2, 2,6-dihydro-7-[(3-hydroxypropyl)thio]-2-methyl-4-(2-methylpropyl)-6-(1-napthanlenylmethyl)-1H-pyrrolo[3,4-d]pyridazin-1-one] the IC50 (activated T-lymphocytes [1]) was 1.35 nM, the IC50 (activated T-lymphocytes [2]) was 0.794 nM and the EC50 (activated T-lymphocytes [3]) was 0.55 nM. The IC50 (Splenic B-lymphocytes; Mus musculus, 8-mercaptoguanosine 100 μg/ml, partial inhibition, read-out: IA50, proliferative response to 8MG) was 10 nM, the IC50 (Splenic B-lymphocytes; Mus musculus, LPS 50 μg/ml, partial inhibition, read-out: IA50, proliferative response to LPS) was 5 nM and the IC50 (Splenic B-lymphocytes; goat anti mouse IgM 40 μg/ml, weak, read-out: IA50, proliferative response to goat anti-mouse IgM) was over 100 nM. For the same compound, the “effect on decrease in intracellular pH on addition of exogenous lactate” value (human MCT1) was “completely abolished” and the IC50 [4] was 0.38 nM.

In the case of `[3H]CC([3H])(C[3H])Cn1c(=O)n(C)c(=O)c2c(SCCCO)n(Cc3cccc4ccccc34)cc21` [Ligand C, 5-[(3-Hydroxypropyl)thio]-1-([2,3,3′-^3H]isobutyl)-3-methyl-6-(1-naphthalenylmethyl)-1H-pyrrolo[3,4-d]pyrimidine-2,4(3H,6H)-dione], the “Specific binding (cpm) Average” value (human MCT2; MCT2 (2 ug)) is reported as 593 cpm, the “Specific binding (cpm) Average” value (human MCT2; MCT2 (20 ug)) is reported as 213 cpm and the “Specific binding (cpm) Average” value (human MCT3; MCT3 (2 ug)) is reported as 0 cpm. For the same compound, the “Specific binding (cpm) Average” value (human MCT3; MCT3 (20 ug)) was 40 cpm, the “Specific binding (cpm) Average” value (human MCT4; MCT4 (2 ug)) was 81 cpm and the “Specific binding (cpm) Average” value (human MCT4; MCT4 (20 ug)) was 0 cpm. The “Specific binding (cpm) Average” value ([5]; vector (2 ug)) was 0 cpm, the “Specific binding (cpm) Average” value ([5]; vector (20 ug)) was 0 cpm and the “binding sites per cell” value (MDA-MB-231 cell line) was about 6000 binding sites per cell. For the same compound, the “Specific binding (cpm) Average” value (MCT1; MCT1 (2 ug)) was 3621 cpm and the “Specific binding (cpm) Average” value (MCT1; MCT1 (20 ug)) was 5553 cpm.

Source: US20040072746A1, “Inhibitors of monocarboxylate transport” (priority 2001, published 2004)
